The target of this assay is T1, human TGR5 (Homo sapiens, UniProt Q8TDU6).
T1 construct: expressed in transfected cells; host or cells: HEK293
T1 sequence (Q8TDU6 1-330): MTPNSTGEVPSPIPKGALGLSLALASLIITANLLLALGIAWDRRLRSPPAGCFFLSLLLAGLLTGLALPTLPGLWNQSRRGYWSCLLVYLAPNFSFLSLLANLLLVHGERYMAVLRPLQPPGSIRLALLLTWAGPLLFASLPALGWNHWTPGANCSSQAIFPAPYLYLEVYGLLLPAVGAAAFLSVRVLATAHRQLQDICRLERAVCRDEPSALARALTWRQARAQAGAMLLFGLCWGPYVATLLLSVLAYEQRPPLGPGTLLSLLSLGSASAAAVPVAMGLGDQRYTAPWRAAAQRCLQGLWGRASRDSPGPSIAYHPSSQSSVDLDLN
Nature of the assay: Cell-based TGR5 assay (cAMP generation, HTRF). As to conditions: HEK293 cells stably transfected with human TGR5; cAMP by HTRF; 30 minutes at 37° C.; read-out: pEC50 Human TGR5 (converted). The method, boiled down: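 First, compounds in 3-fold serial dilution were placed in HBSS with 10 mM HEPES pH 7.4 and 0.5 mM IBMX. Next, human TGR5-expressing HEK293 cells were added and incubated 30 min at 37° C. Finally, cAMP was detected by HTRF and pEC50 derived by logistic fitting.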
(In general: In TR-FRET formats the signal depends on donor and acceptor labels being close together.)
As to `CC(CCCC(=O)N(CCS(C)(=O)=O)C[C@@H](O)[C@H](O)[C@@H](O)[C@@H](O)CO)c1ccc(Cl)c(CNC2(c3cnccc3-c3ccccc3OC3CC3)CC2)c1` (stereo partly drawn) [Compound I-346, 5-{4-chloro-3-[({1-[4-(2-cyclopropoxyphenyl)pyridin-3-yl]cyclopropyl}amino)methyl]phenyl}-N-(2-methanesulfonylethyl)-N-[(2R,3S,4S,5S)-2,3,4,5,6-pentahydroxyhexyl]hexanamide], the EC50 is less than 100 nM.

On to `CC(OCCc1cc(Cl)c(COC2(c3cnccc3-c3ccccc3OC3CC3)CC2)cc1Cl)C(=O)NC[C@H](O)[C@@H](O)[C@H](O)[C@H](O)CO` (stereo partly drawn) [Compound I-152, 2-{2-[2,5-dichloro-4-({1-[4-(2-cyclopropoxyphenyl)pyridin-3-yl]cyclopropoxy}methyl)phenyl]ethoxy}-N-[(2S,3R,4R,5R)-2,3,4,5,6-pentahydroxyhexyl]propanamide], for which the EC50 is 126 to 1000 nM.

Regarding `FC(F)(F)c1ccc(Cl)cc1COC1(c2cnccc2-c2ccccc2OC2CC2)CC1` [Compound I-51, 3-(1-{[5-chloro-2-(trifluoromethyl)phenyl]methoxy}cyclopropyl)-4-(2-cyclopropoxyphenyl) pyridine], the EC50 is 126 to 1000 nM.

For the molecule `O[C@@H]1COC[C@H]1Oc1ccccc1-c1ccncc1C1(NCc2cc(Cl)ccc2Cl)CC1` [Compound I-22, (3R,4R)-4-{2-[3-(1-{[(2,5-dichlorophenyl)methyl]amino}cyclopropyl)pyridin-4-yl]phenoxy}oxolan-3-ol], the EC50 is 1260 to 10000 nM.

Turning to `O=C(NCCCCOc1ccc(Cl)c(COC2(c3cnccc3-c3ccccc3OC3CC3)CC2)c1)NC[C@H](O)[C@@H](O)[C@H](O)[C@H](O)CO` [Compound I-755, 1-(4-(4-chloro-3-((1-(4-(2-cyclopropoxyphenyl)pyridin-3-yl)cyclopropoxy)methyl)phenoxy)butyl)-3-((2S,3R,4R,5R)-2,3,4,5,6-pentahydroxyhexyl)urea], the EC50 was 126 to 1000 nM.

Take `Cc1ccc(C(C)CCCC(=O)N(CCC(=O)N(C)C)C[C@H](O)[C@@H](O)[C@H](O)[C@H](O)CO)cc1CNC1(c2cnccc2-c2ccccc2OC2CC2)CC1` (stereo partly drawn) [Compound I-366, 5-{3-[({1-[4-(2-cyclopropoxyphenyl)pyridin-3-yl]cyclopropyl}amino)methyl]-4-methylphenyl}-N-[2-(dimethylcarbamoyl)ethyl]-N-[(2S,3R,4R,5R)-2,3,4,5,6-pentahydroxyhexyl]hexanamide]: the EC50 is 126 to 1000 nM.

On to `O=C(O)CCC(=O)N(CCCCc1cc(Cl)c(COC2(c3cnccc3-c3ccccc3OC3CC3)CC2)cc1Cl)C[C@H](O)[C@@H](O)[C@H](O)[C@H](O)CO` (stereo in doubt) [Compound I-187, 3-({4-[2,5-dichloro-4-({1-[4-(2-cyclopropoxyphenyl)pyridin-3-yl]cyclopropoxy}methyl)phenyl]butyl}[(2S,3R,4R,5R)-2,3,4,5,6-pentahydroxyhexyl]carbamoyl)propanoic acid], for which the EC50 was less than 100 nM.

On to `Cc1cc(COC2(c3cnccc3-c3ccccc3OC3CC3)CC2)c(C)cc1CCCCC(=O)NC[C@H](O)[C@@H](O)[C@H](O)[C@H](O)CO` [Compound I-229, 5-[4-({1-[4-(2-cyclopropoxyphenyl)pyridin-3-yl]cyclopropoxy}methyl)-2,5-dimethylphenyl]-N-[(2S,3R,4R,5R)-2,3,4,5,6-pentahydroxyhexyl]pentanamide], for which the EC50 is less than 100 nM.

For the molecule `O=C(NCCCCN(CCO)S(=O)(=O)c1ccc(Cl)c(COC2(c3cnccc3-c3ccccc3OC3CC3)CC2)c1)NC[C@H](O)[C@@H](O)[C@H](O)[C@H](O)CO` [Compound I-414, 1-{4-[N-(2-hydroxyethyl)4-chloro-3-({1-[4-(2-cyclopropoxyphenyl)pyridin-3-yl]cyclopropoxy}methyl)benzenesulfonamido]butyl}-3-[(2S,3R,4R,5R)-2,3,4,5,6-pentahydroxyhexyl]urea], the EC50 is less than 100 nM.

For `C[C@@H](CCCCNC(=O)NC[C@H](O)[C@@H](O)[C@H](O)[C@H](O)CO)c1ccc(Cl)c(COC2(c3cnccc3-c3ccccc3OC3CC3)CC2)c1` (single isomer, unassigned) [Compound I-274], the EC50 is less than 100 nM.

For `CCNC(=O)[C@@H](CCCCNS(=O)(=O)c1ccc(Cl)c(COC2(c3cnccc3-c3ccccc3OC3CC3)CC2)c1)NC(=O)NC[C@H](O)[C@@H](O)[C@H](O)[C@H](O)CO` [Compound I-482, (2R)-6-[4-chloro-3-({1-[4-(2-cyclopropoxyphenyl)pyridin-3-yl]cyclopropoxy}methyl)benzenesulfonamido]-N-ethyl-2-({[(2S,3R,4R,5R)-2,3,4,5,6-pentahydroxyhexyl]carbamoyl}amino)hexanamide], the EC50 was 126 to 1000 nM.

As to `CC(=O)NCCN(CCCSc1ccc(Cl)c(COC2(c3cnccc3-c3ccccc3OC3CC3)CC2)c1)C(=O)[C@@H](O)[C@@H](O)[C@H](O)[C@@H](O)CO` [Compound I-595, (2S,3S,4R,5S)-N-(3-{[4-chloro-3-({1-[4-(2-cyclopropoxyphenyl)pyridin-3-yl]cyclopropoxy}methyl)phenyl]sulfanyl}propyl)-N-(2-acetamidoethyl)-2,3,4,5,6-pentahydroxyhexanamide], the EC50 was 126 to 1000 nM.

With `COc1ccc2c(n1)CCN(S(=O)(=O)c1ccc(Cl)c(COC3(c4cnccc4-c4ccccc4OC4CC4)CC3)c1)C2` [Compound I-733, 6-[[4-chloro-3-([1-[4-(2-cyclopropoxyphenyl)pyridin-3-yl]cyclopropoxy]methyl)benzene]sulfonyl]-2-methoxy-5,6,7,8-tetrahydro-1,6-naphthyridine], the EC50 was less than 100 nM.

Regarding `COCCN(C[C@H](O)[C@@H](O)[C@H](O)[C@H](O)CO)C(=O)CCCC(C)c1ccc(C)c(CNC2(c3cnccc3-c3ccccc3OC3CC3)CC2)c1` (stereo partly drawn) [Compound I-357, 5-{3-[({1-[4-(2-cyclopropoxyphenyl)pyridin-3-yl]cyclopropyl}amino)methyl]-4-methylphenyl}-N-(2-methoxyethyl)-N-[(2S,3R,4R,5R)-2,3,4,5,6-pentahydroxyhexyl]hexanamide], the EC50 was less than 100 nM.

Consider `CC(CCCNC(=O)[C@@H](O)[C@@H](O)[C@H](O)[C@@H](O)CO)c1ccc(Cl)c(CNC2(c3cnccc3-c3ccccc3OC3CC3)CC2)c1` (stereo partly drawn) [Compound I-278, (2S,3S,4R,5S)-N-(4-{4-chloro-3-[({1-[4-(2-cyclopropoxyphenyl)pyridin-3-yl]cyclopropyl}amino)methyl]phenyl}pentyl)-2,3,4,5,6-pentahydroxyhexanamide], for which the EC50 is less than 100 nM.

`O=C(CCCSc1ccc(Cl)c(CNC2(c3cnccc3-c3ccccc3OC3CC3)CC2)c1)NC[C@H](O)[C@@H](O)[C@H](O)[C@H](O)CO` [Compound I-649, 4-({4-chloro-3-[({1-[4-(2-cyclopropoxyphenyl)pyridin-3-yl]cyclopropyl}amino)methyl]phenyl}sulfanyl)-N-[(2S,3R,4R,5R)-2,3,4,5,6-pentahydroxyhexyl]butanamide]: the EC50 was less than 100 nM.

With `CC(OCc1cc(Cl)ccc1Cl)c1cnccc1-c1ccccc1OC1CC1` (centres unmarked) [Compound I-745, 4-(2-cyclopropoxyphenyl)-3-(1-((2,5-dichlorobenzyl)oxy)ethyl)pyridine], the EC50 is 126 to 1000 nM.
